Square brackets hold non-standard residues; d marks the D form. Peptide text beside a SMILES is read from it. * marks the point of attachment. X1 = O=C(O)CC[C@H](NC(=O)N[C@@H](CCCCNC(=O)CCCCCCC(=O)*)C(=O)O)C(=O)O; DOTAGA = O=C(O)CN1CCN(CC(=O)O)CCN(C(CCC(=O)*)C(=O)O)CCN(CC(=O)O)CC1; dPhe(4-NH2) = Nc1ccc(C[C@@H](N)C(=O)O)cc1; dTyr(3-I) = N[C@H](Cc1ccc(O)c(I)c1)C(=O)O; Phe(4-NH2) = Nc1ccc(C[C@H](N)C(=O)O)cc1; d2Nal = N[C@H](Cc1ccc2ccccc2c1)C(=O)O
Key:
PSMA [1] = molecular target: T1, PSMA (Homo sapiens, UniProt Q04609); experiment: Determination of IC50: competitive binding against ([125I]I-BA)KuE on cells; parameters: endogenous in cells; LNCaP is named only for the xenografts; conditions: for IC50: natLu complexes, displacement of ([125I]I-BA)KuE, 60 min on ice, HBSS (1% BSA)
T1 sequence (Q04609 whole entry): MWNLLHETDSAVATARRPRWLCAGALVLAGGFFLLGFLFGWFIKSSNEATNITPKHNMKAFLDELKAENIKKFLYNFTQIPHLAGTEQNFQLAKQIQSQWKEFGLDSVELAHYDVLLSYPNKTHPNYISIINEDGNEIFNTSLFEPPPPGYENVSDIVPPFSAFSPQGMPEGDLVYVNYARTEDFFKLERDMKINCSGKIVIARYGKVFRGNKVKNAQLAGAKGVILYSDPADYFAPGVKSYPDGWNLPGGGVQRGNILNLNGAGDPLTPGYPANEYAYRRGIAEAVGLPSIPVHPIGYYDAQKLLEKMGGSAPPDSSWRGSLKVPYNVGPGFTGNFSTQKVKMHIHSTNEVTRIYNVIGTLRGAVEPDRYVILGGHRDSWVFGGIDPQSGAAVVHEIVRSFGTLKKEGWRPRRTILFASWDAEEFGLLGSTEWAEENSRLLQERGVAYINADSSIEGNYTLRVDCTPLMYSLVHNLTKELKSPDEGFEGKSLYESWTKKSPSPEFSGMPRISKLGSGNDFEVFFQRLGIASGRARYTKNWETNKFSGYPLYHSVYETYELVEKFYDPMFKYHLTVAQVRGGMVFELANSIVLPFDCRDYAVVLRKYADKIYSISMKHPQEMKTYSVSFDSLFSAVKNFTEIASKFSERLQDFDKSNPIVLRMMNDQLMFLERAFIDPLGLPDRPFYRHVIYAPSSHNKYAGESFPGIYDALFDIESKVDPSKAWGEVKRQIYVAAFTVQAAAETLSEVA
Experimental: The corresponding ^natLu^III-complexes were prepared from a 2 mM aqueous solution of the PSMA inhibitor with a 2.5 molar excess of LuCl3 (20 mM solution), heated to 95 °C for 30 min. After cooling, the ^natLu^III-chelate formation was confirmed using HPLC and MS. […] Calculated monoisotopic mass (C67H92N11O23 Lu) = 1,593.6 found: m/z = 1,595.0 [M+H]^+, 798.2 [M+2H]^2+. [^natLu]DOTAGA-(4-NH2)f-y-nal-k-KuE ([^natLu]PSMA-5): HPLC (10 to 60% B in 15 min.): tR = 9.0 min K' = 3.5. Calculated monoisotopic mass (C76H102N13O24 Lu) = 1,755.7 found: m/z = 1,756.4 [M+H]^+, 879.0 [M+2H]^2+. [^natLu]DOTAGA-(4-NH2)F-y-nal-k-KuE ([^natLu]PSMA-6): HPLC (10 to 60% B in 15 min.): tR = 9.1 min K' = 3.6. Calculated monoisotopic mass (C76H102N13O24 Lu) = 1,755.7 found: m/z = 1,756.6 [M+H]^+, 878.8 [M+2H]^2+. [^natLu]DOTAGA-y-nal-k(Suc-(HO-δ-orn-γ-EuE))-OH ([^natLu]PSMA-7): HPLC (10 to 60 % B in 15 min): tR = 7.8 min K' = 2.9. Calculated monoisotopic mass (C67H89N12O26 Lu): 1,652.5 found: m/z = 1,653.9 [M+H]^+. [^natLu]DOTAGA-(4-NH2)f-y-nal-k(Suc-(HO-δ-orn-γ-EuE))-OH ([^natLu]PSMA-8): HPLC (10 to 60 % B in 15 min): tR = 7.3 min K' = 2.7. Calculated monoisotopic mass (C67H99N14O27Lu): 1,814.6 found: m/z = 1,815.9 [M+H]^+, 908.3 [M+2H]^2+. [^natLu]DOTAGA-(4-NH2)F-y-nal-k(Suc-(HO-δ-orn-γ-EuE))-OH ([^natLu]PSMA-9): HPLC (10 to 60 % B in 15 min): tR = 7.2 min K' = 2.6. Calculated monoisotopic mass (C67H99N14O27Lu): 1,814.6 found: m/z = 1,815.6 [M+H]^+, 908.3 [M+2H]^2+. [^natLu]DOTAGA-y-nal-k(Glut-(l-f)-KuE) ([^natLu]PSMA-10): HPLC (25 to 55% B in 15 min): tR = 10.6 min K' = 4.9. Calculated monoisotopic mass (C73H94IN12O24Lu): 1,825.5 found: m/z = 1,826.5 [M+H]^+, 913.8 [M+2H]^2+. [^natLu]DOTAGA-(4-NH2)f-y-nal-k(Glut-(l-f)-KuE) ([^natLu]PSMA-11): HPLC (10 to 60% B in 20 min): tR = 9.7 min K' = 3.9. Calculated monoisotopic mass (C82H104IN14O25Lu): 1,986.6 found: m/z = 1,987.5 [M+H]^+, 994.3 [M+2H]^2+.
The reaction solution was incubated for 10 min at RT, loaded on a cartridge and rinsed with 10 mL water (C18 Sep Pak Plus cartridge, preconditioned with 10 mL MeOH and 10 mL water). After elution with 2.0 mL of a 1:1 mix (v/v) of EtOH/MeCN, the radioactive solution was evaporated to dryness under a gentle nitrogen stream and treated with 200 µL TFA for 30 min with subsequent evaporation of TFA.
After removal of the culture medium, the cells were treated once with 500 µL of HBSS (Hank's balanced salt solution, Biochrom, Berlin, Germany, with addition of 1% bovine serum albumin (BSA)) and left 15 min on ice for equilibration in 200 µL HBSS (1% BSA). […] All experiments were performed at least three times for each concentration. After 60 min incubation on ice, the experiment was terminated by removal of the medium and consecutive rinsing with 200 µL of HBSS. The media of both steps were combined in one fraction and represent the amount of free radioligand. Afterwards, the cells were lysed with 250 µL of 1.0 M NaOH and united with the 200 µL HBSS of the following wash step. Quantification of bound and free radioligand was accomplished in a γ-counter.

PSMA [2] = molecular target: T1, PSMA; experiment: Internalization of radiolabeled PSMA inhibitors into cells (PMPA blockade); format: cell-based; parameters: endogenous in cells; LNCaP is named only for the xenografts; conditions: 177Lu-labeled inhibitors, 37°C; reference basis of the % not stated
Experimental: The ^177Lu-labeled compounds, for in vitro studies, were prepared as previously described (Sosabowski, J.K. and S.J. Mather, Conjugation of DOTA-like chelating agents to peptides and radiolabeling with trivalent metallic isotopes. Nat. Protocols, 2006. 1(2): p. 972-976) with minor modifications and used without further purification. In short, to a reaction volume of 10 µL 1.0 M NH4OAc buffer pH = 5.9 was added 0.75 to 1.0 nmol tracer (7.5 to 10 µL), 10 to 40 MBq ^177LuCl3 (Specific Activity (AS) > 3000 GBq/mg, 740 MBq/mL, 0.04 M HCl, ITG, Garching, Germany) and finally filled up to 100 µL with trace-pure Water (Merck, Darmstadt, Germany). The reaction mixture was heated for 30 min at 95°C and the radiochemical purity was determined using Radio-TLC.
[…] Each well was treated with either 25 µL of either DMEM-F12 (5% BSA) or a 100 µM PMPA solution for blockade. Next, 25 µL of the respective ^68Ga-and ^177Lu-labeled PSMA inhibitors (2.0 nM / 5.0 nM) was added and the cells incubated at 37°C for 5, 15, 30 and 60 min, respectively. The experiment was terminated by placing the 24-well plate on ice for 3 min and consecutive removal of the medium. Each well was rinsed with 250 µL HBSS and the fractions from these first two steps combined, representing the amount of free radioligand. Removal of surface bound activity was accomplished by incubation of the cells with 250 µL of ice-cold PMPA (10 µM in PBS) solution for 5 min and rinsed again with another 250 µL of ice-cold PBS. The internalized activity was determined by incubation of the cells in 250 µL 1.0 M NaOH and the combination with the fraction of a subsequent wash step with 250 µL 1.0 M NaOH. Each experiment (control and blockade) was performed in triplicate for each time point. Free, surface bound and internalized activity was quantified in a γ-counter.

Row | IC50 (PSMA [1]) [nM] | Internalization [%] (PSMA [2]) | affinity, fold higher than [Lu]PSMA DKFZ 617 (PSMA [1]; relative to [Lu]PSMA DKFZ 617) | affinity, fold higher than [Lu]PSMA I&T (PSMA [1]; relative to [Lu]PSMA I&T) | Compound
1 | 2.3 ± 0.6 | 122.15 ± 1.3 | – | – | Nc1ccc(C[C@@H](NC(=O)CCC(C(=O)O)N2CCN(CC(=O)O)CCN(CC(=O)O)CCN(CC(=O)O)CC2)C(=O)N[C@H](Cc2ccc(O)c(I)c2)C(=O)N[C@H](Cc2ccccc2)C(=O)N[C@H](CCCCNC(=O)CCCCCCC(=O)NCCCC[C@H](NC(=O)N[C@@H](CCC(=O)O)C(=O)O)C(=O)O)C(=O)O)cc1 (stereo partly drawn) [[^nat/177Lu]PSMA-2, DOTAGA-(4-NH2)f-(l-y)-f-k-KuE, metal not drawn] ({DOTAGA}-[dPhe(4-NH2)][dTyr(3-I)][dF][dK](X1)-OH)
2 | 2.8 ± 0.3 | 166.92 ± 2.4 | – | – | Nc1ccc(C[C@H](NC(=O)CCC(C(=O)O)N2CCN(CC(=O)O)CCN(CC(=O)O)CCN(CC(=O)O)CC2)C(=O)N[C@H](Cc2ccc(O)c(I)c2)C(=O)N[C@H](Cc2ccccc2)C(=O)N[C@H](CCCCNC(=O)CCCCCCC(=O)NCCCC[C@H](NC(=O)N[C@@H](CCC(=O)O)C(=O)O)C(=O)O)C(=O)O)cc1 (stereo partly drawn) [[^nat/177Lu]PSMA-3, DOTAGA-(4-NH2)F-(l-y)-f-k-KuE, metal not drawn] ({DOTAGA}-[Phe(4-NH2)][dTyr(3-I)][dF][dK](X1)-OH)
3 | 2.1 ± 0.8 | 71.7 ± 0.7 | – | – | O=C(O)CC[C@H](NC(=O)N[C@@H](CCCCNC(=O)CCCCCCC(=O)NCCCC[C@@H](NC(=O)[C@@H](Cc1ccc2ccccc2c1)NC(=O)[C@@H](Cc1ccc(O)cc1)NC(=O)CCC(C(=O)O)N1CCN(CC(=O)O)CCN(CC(=O)O)CCN(CC(=O)O)CC1)C(=O)O)C(=O)O)C(=O)O (stereo partly drawn) [[^nat/177Lu]PSMA-4, DOTAGA-y-nal-k-KuE, metal not drawn, reference compound]
4 | 1.1 ± 0.1 | 108.8 ± 2.5 | more than 3 fold | around 7 fold | Nc1ccc(C[C@H](NC(=O)CCC(C(=O)O)N2CCN(CC(=O)O)CCN(CC(=O)O)CCN(CC(=O)O)CC2)C(=O)N[C@H](Cc2ccc(O)cc2)C(=O)N[C@H](Cc2ccc3ccccc3c2)C(=O)N[C@H](CCCCNC(=O)CCCCCCC(=O)NCCCC[C@H](NC(=O)N[C@@H](CCC(=O)O)C(=O)O)C(=O)O)C(=O)O)cc1 (stereo partly drawn) [[^nat/177Lu]PSMA-6, DOTAGA-(4-NH2)F-y-nal-k-KuE, metal not drawn] ({DOTAGA}-[Phe(4-NH2)][dY][d2Nal][dK](X1)-OH)
5 | 6.1 ± 1.6 | 118.6 ± 0.5 | – | – | O=C(O)CC[C@H](NC(=O)N[C@@H](CCCCNC(=O)[C@@H](Cc1ccc(I)cc1)NC(=O)CCCC(=O)NCCCC[C@@H](NC(=O)[C@@H](Cc1ccc2ccccc2c1)NC(=O)[C@@H](Cc1ccc(O)cc1)NC(=O)CCC(C(=O)O)N1CCN(CC(=O)O)CCN(CC(=O)O)CCN(CC(=O)O)CC1)C(=O)O)C(=O)O)C(=O)O (stereo partly drawn) [[^nat/177Lu]PSMA-10, DOTAGA-y-nal-k(Glut-(l-f)-KuE), metal not drawn, reference compound]

Reference: patent EP3494999A1, “PSMA LIGANDS FOR IMAGING AND ENDORADIOTHERAPY” (Technische Universität München, priority 2017, dated 2019)
